Broadly, the inhibition is the change of the read-out against control, counted positive when it falls. Usually Ki stands for the equilibrium dissociation constant of an inhibitor or competing ligand from its target. Low values mean a stronger hold on the target, high ones a looser hold on the target.

For one molecule, inhibition and Ki results are on record in ChEMBL document CHEMBL4507291 (2021).

Data set [1] has as its target Serine/threonine-protein kinase 24 (Homo sapiens) (UniProt Q9Y6E0). As to the kind of experiment: STK24 (MST3) Kinase screen. The conditions noted are these: Compound concentration 1.0 uM.
For data set [2], the target named is Melanocortin receptor 3 (Homo sapiens) (UniProt P41968). Description: Inhibition of Melanocortin MC3 at 10 µM in the Eurofins-Panlabs radioligand binding assay (Eurofins_assay_251300). The conditions noted are these: Compound concentration 10.0 uM. Set-up: ligand concentration 0.035 nM.
The target in data set [3] is T1, Alpha-2A adrenergic receptor (Homo sapiens) (UniProt P08913).
T1 sequence (whole entry): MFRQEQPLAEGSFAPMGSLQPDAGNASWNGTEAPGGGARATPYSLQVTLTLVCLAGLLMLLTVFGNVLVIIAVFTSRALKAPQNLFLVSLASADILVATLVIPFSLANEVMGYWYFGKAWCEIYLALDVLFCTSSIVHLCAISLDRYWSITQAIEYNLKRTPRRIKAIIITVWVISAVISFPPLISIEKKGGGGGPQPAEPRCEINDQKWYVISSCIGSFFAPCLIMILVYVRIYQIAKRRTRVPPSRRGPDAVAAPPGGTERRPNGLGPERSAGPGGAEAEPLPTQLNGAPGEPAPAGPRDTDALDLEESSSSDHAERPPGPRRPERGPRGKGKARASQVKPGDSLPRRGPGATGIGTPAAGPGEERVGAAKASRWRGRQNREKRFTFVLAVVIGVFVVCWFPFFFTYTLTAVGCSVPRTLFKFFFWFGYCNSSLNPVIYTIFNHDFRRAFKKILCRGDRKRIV
As to the kind of experiment: Adrenergic alpha2A Eurofins-Panlabs radioligand binding assay. Also noted: ligand concentration 1 nM, non-specific ligand with concentration 10 µM WB-4101, incubation time 60 min, incubation temperature 25 °C. To be noted: Compound concentration 10.0 uM.

In data set [4] the target is Misshapen-like kinase 1 (Homo sapiens) (UniProt Q8N4C8). As to the kind of experiment: MINK1 Kinase screen. To be noted: Compound concentration 1.0 uM.
Another data set is filed under the species Rattus norvegicus. Description: Testosterone Eurofins-Panlabs radioligand binding assay. Also noted: ligand concentration 1.5 nM. To be noted: Compound concentration 10.0 uM.
Data set [5] concerns the target MAO-B (amine oxidase [flavin-containing] B) (Homo sapiens, UniProt P27338). As to the kind of experiment: Inhibition of Monoamine Oxidase MAO-B at compound concentration of 10.0 uM in the Eurofins-Panlabs enzyme assay (Eurofins_assay_140120). Set-up: substrate with concentration 50 uM Kynuramine, incubation time 60 min, incubation temperature 37 C. The conditions noted are these: recombinant human MAO-B expressed in insect Hi5 cells, probe kynuramine (50 uM), compound concentration 10 uM.

Data set [6] relates to Serine/threonine-protein kinase B-raf (Homo sapiens), P15056 [V600E]. Description: BRAF V599E Kinase screen. To be noted: Compound concentration 1.0 uM.
For data set [7], the target named is Peroxisome proliferator-activated receptor gamma (Homo sapiens, UniProt P37231). As to the kind of experiment: (§1) PPARgamma Eurofins-Panlabs radioligand binding assay. Also noted: ligand concentration 5 nM, non-specific ligand with concentration 0.5 µM L-797773, incubation time 18 h, incubation temperature 15 °C.
In data set [8] the target is T2, Peroxisome proliferator-activated receptor gamma (Homo sapiens) (UniProt P37231).
T2 sequence (whole entry): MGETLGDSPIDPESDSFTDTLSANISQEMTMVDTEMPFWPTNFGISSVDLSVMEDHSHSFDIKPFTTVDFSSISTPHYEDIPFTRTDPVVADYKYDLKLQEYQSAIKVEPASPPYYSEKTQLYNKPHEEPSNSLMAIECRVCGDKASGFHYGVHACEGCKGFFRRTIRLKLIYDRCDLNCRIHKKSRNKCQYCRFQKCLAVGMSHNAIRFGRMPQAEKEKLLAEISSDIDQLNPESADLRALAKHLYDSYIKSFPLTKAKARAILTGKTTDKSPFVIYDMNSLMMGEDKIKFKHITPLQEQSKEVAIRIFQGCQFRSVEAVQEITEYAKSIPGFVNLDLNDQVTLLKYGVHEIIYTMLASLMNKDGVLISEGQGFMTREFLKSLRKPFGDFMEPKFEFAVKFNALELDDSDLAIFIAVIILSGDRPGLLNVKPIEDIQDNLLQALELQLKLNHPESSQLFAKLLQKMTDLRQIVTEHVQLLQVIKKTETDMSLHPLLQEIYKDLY
The description is as §1. Set-up: ligand concentration 5 nM, non-specific ligand with concentration 0.5 µM L-797773, incubation time 18 h, incubation temperature 15 °C.

The target of data set [9] is T3, Ephrin type-A receptor 8 (Homo sapiens) (UniProt P29322).
T3 sequence (whole entry): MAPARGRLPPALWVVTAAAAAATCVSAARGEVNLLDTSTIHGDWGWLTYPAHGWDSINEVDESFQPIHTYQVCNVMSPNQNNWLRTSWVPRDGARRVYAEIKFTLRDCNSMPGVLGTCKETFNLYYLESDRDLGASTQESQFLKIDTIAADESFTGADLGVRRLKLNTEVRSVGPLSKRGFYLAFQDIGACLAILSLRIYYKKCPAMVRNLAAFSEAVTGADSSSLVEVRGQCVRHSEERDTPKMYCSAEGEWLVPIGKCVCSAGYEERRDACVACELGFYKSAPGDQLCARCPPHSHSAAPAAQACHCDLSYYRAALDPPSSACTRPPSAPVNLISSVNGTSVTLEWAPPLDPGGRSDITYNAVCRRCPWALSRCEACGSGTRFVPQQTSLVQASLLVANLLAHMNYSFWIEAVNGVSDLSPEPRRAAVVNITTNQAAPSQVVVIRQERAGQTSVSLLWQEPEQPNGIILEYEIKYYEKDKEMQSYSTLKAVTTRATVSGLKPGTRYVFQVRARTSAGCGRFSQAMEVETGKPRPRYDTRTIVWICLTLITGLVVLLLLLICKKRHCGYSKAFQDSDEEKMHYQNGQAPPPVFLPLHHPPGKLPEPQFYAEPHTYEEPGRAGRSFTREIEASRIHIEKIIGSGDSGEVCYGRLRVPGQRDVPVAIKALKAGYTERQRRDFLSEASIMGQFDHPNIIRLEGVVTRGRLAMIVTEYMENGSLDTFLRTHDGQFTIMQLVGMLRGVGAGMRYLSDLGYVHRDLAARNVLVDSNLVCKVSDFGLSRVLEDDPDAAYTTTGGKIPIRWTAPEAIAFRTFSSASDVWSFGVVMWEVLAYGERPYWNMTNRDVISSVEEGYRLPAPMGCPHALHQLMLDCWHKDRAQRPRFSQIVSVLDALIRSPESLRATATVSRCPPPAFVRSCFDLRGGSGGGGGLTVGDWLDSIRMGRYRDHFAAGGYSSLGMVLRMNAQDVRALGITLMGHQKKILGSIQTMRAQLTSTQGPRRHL
As to the kind of experiment: EPHA8 Kinase screen. To be noted: Compound concentration 1.0 uM.

The target of data set [10] is Macrophage-stimulating protein receptor (Homo sapiens) (UniProt Q04912). Description: MST1R (RON) Kinase screen. To be noted: Compound concentration 1.0 uM.
Data set [11] has as its target D(2) dopamine receptor (Homo sapiens) (UniProt P14416). The conditions noted are these: Compound concentration 10.0 uM.
In data set [12] the target is Phosphodiesterase 3 (Homo sapiens) (UniProt Q14432+Q13370). Description: Inhibition of Phosphodiesterase PDE3 at compound concentration of 10.0 uM in the Eurofins-Panlabs enzyme assay (Eurofins_assay_152000). Format: protein assay. Also noted: substrate with concentration 1.01 uM [3H] cAMP + cAMP, incubation time 20 min, incubation temperature 25 C. The conditions noted are these: Compound concentration 10.0 uM.

Sequence of MAO-B (amine oxidase [flavin-containing] B) (P27338 whole entry): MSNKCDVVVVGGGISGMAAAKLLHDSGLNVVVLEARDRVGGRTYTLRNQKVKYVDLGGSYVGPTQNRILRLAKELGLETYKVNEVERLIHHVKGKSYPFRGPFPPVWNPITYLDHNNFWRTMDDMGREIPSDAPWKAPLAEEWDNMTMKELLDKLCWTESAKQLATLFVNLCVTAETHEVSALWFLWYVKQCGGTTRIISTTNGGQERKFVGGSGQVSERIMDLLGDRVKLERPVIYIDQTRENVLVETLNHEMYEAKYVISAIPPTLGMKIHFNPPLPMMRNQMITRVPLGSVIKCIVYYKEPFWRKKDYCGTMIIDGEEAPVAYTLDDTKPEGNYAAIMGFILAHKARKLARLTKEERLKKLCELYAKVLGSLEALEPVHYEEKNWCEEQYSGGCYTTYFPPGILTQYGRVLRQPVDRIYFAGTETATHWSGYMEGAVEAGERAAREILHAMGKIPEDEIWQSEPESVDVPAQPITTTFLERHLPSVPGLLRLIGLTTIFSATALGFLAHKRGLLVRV
Sequence of Serine/threonine-protein kinase B-raf (Homo sapiens), P15056 [V600E] (P15056 whole entry V600E): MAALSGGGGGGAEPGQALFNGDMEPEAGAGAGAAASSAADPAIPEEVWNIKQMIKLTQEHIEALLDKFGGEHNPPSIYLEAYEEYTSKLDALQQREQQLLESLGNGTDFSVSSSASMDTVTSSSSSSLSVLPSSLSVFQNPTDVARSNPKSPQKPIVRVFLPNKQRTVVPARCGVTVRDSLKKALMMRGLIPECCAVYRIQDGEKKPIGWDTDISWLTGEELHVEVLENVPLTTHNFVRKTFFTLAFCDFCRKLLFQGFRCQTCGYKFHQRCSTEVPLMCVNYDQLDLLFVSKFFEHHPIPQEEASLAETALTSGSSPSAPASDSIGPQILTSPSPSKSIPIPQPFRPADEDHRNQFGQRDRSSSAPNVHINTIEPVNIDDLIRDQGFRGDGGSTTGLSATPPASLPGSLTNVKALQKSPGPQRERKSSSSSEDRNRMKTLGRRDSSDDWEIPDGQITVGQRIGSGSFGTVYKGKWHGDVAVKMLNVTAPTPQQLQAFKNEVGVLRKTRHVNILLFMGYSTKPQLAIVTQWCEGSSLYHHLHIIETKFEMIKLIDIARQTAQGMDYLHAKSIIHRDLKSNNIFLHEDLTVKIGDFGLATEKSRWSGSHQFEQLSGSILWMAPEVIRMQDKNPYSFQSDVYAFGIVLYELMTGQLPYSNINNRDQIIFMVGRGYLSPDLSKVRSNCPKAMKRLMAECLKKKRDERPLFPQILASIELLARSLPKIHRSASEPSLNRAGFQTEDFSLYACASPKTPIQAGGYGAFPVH
Sequence of Misshapen-like kinase 1 (Homo sapiens) (Q8N4C8 whole entry, looked up): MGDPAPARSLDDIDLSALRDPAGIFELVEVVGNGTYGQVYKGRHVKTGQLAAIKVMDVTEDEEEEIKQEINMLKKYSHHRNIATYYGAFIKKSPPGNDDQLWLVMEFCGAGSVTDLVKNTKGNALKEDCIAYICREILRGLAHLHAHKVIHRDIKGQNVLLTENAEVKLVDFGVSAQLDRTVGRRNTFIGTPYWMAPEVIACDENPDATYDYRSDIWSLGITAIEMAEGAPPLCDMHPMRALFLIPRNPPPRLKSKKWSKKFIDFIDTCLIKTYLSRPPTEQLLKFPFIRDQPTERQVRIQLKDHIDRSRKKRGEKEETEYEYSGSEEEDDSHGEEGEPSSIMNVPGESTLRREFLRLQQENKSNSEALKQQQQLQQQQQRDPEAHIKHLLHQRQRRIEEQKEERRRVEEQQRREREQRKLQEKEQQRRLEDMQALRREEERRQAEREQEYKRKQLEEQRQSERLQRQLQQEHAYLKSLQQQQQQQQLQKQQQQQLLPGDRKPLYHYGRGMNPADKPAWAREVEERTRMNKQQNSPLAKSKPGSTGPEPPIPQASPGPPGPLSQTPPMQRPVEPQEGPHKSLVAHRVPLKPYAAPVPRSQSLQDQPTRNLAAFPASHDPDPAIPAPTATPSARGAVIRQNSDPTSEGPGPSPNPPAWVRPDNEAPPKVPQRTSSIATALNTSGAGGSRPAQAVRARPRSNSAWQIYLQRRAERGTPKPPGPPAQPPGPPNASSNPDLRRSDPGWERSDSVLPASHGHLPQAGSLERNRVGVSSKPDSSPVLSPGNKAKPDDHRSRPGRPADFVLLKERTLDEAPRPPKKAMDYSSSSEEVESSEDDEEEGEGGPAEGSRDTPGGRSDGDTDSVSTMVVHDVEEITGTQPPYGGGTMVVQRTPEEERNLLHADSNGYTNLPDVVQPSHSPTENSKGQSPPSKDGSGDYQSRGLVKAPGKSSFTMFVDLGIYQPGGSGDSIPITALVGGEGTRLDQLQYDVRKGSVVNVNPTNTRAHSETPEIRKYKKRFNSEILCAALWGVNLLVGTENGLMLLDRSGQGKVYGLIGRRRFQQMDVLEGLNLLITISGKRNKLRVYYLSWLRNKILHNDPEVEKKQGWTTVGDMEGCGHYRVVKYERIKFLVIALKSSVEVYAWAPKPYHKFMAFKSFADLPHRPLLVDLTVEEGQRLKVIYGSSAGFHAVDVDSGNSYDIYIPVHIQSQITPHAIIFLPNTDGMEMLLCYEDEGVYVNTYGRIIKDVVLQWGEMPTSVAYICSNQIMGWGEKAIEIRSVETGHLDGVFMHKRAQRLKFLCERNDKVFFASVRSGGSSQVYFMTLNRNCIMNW
Sequence of Melanocortin receptor 3 (Homo sapiens) (P41968 whole entry): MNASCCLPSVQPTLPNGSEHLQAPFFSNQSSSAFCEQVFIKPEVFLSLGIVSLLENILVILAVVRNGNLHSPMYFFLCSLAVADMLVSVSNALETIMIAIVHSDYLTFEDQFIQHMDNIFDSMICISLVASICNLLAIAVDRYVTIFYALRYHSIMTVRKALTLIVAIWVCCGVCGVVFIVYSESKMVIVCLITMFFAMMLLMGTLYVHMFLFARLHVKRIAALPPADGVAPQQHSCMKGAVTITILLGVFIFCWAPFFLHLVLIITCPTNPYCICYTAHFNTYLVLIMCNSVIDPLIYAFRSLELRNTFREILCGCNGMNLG
Sequence of D(2) dopamine receptor (Homo sapiens) (P14416 whole entry): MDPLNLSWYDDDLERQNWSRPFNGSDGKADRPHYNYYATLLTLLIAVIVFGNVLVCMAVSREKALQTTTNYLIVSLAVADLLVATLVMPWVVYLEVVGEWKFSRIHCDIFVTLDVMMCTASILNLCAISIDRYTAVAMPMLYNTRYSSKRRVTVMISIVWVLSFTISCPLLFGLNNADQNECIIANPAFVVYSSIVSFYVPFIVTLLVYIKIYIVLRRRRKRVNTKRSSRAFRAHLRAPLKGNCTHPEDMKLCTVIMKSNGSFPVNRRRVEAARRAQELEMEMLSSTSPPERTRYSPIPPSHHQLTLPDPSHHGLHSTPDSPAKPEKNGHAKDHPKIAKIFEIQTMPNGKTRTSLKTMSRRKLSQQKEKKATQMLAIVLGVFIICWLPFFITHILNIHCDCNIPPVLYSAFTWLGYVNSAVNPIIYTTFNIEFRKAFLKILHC
Sequence of Serine/threonine-protein kinase 24 (Homo sapiens) (Q9Y6E0 whole entry, looked up): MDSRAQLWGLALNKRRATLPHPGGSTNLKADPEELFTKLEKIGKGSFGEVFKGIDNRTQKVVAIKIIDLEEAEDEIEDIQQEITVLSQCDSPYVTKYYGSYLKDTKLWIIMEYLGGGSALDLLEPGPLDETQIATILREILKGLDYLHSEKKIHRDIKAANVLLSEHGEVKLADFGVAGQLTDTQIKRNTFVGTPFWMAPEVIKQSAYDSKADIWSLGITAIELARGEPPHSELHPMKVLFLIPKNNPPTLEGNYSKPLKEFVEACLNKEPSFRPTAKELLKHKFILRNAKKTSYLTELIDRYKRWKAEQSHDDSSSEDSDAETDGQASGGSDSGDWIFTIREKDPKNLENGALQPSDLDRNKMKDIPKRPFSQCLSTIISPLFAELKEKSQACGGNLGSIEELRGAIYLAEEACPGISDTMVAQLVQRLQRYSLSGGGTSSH

Turning to `C[C@@H]1CN(c2cc(-c3n[nH]c4ccc(OC5(C)CC5)cc34)ncn2)C[C@H](C)O1` [MLi-2], the inhibition is 7.34% in data set [1]; -2% in data set [2]; 6% in data set [3]; 4.58% in data set [4]; 9% in the data set listed under Rattus norvegicus; 10.4% in data set [6]. Further, the inhibition was 6% in data set [8] (Compound concentration 0.01 uM); 0% in data set [8] (Compound concentration 0.1 uM); 10% in [8] (Compound concentration 1.0 uM); 62% in data set [8] (Compound concentration 10.0 uM); 7.44% in data set [9]; 1.51% in data set [10]. Also, the inhibition in [11] was 11%; in data set [12] it was 21%. For the same molecule, the inhibition at 60 min, 10 µM in data set [5] is given as 28% (not active). The molecule also returned a Ki in data set [7] of 1190 nM.
